Data reported in patent US20040241706A1, “Highly specific modulators of GTPases for target validation” (IRM, LLC, priority 2002, published 2004).
Where a chain is given by its changes, count along the chain named.

How the values were obtained:
[1] = target: T1, GTPase mutant N116C (Homo sapiens, UniProt P01112, N116C); test: Ras inhibitor / guanine nucleotide exchange assay with 3H-GDP, mutant N116C; format: binding; conditions: FIG. 17
T1 construct: made in house; host or cells: E. coli BL21-Gold, pGEX vector
Description: (§1) One exemplary assay which can be used are Ras “inhibition” or “guanine nucleotide exchange” assays, as schematically illustrated in FIG. 8, and described in detail in the Examples hereinbelow. The assay detects inhibition of wild-type and mutant Ras proteins by using ^3H-labelled GDP and cold (non-tritiated) synthetic Ras inhibitors.
FIG. 15 provides a bar chart depicting the ability of various guanosine-based modulators to displace radiolabeled GDP from the GTPase mutant N116C.
FIGS. 16 and 17 graphically illustrates the inhibitory effect of the C-6 or N-7 substituted GMP-scaffold modulators on the double mutant N116G-T114C and the mutant N116C, respectively. […] The inhibitory effect was in the range of approximately 50-80%. […]
(§2) For example, purified mutant Ras (19A-116A) or wild type H-Ras protein (0.5 to 20 μg) was incubated in 40 μL of GTP exchange buffer (50 mM Tris-HCl pH 7.5, 50 mM NaCl, 5 mM EDTA, 1 mM DTT, 1 mg/mL BSA) containing either DMSO, GTP (100 μM) or a modulator (100 μM) for 30 min at 25° C. […] Filters were dried and the bound radioactivity was measured by scintillation counting (Beckman, #LS6500).
(§3) Cold GDP was used as a positive control. […] All of the measurements are in comparison to a background radioactivity count, such that the level of inhibition for a given compound was determined by the number of counts in comparison to the control. […]

[2] = target: T2, single mutant N116G Ras (Homo sapiens, UniProt P01112, N116G); test: Ras inhibitor / guanine nucleotide exchange assay with 3H-GDP, single mutant N116G; format: binding; conditions: FIG. 12 panel B
T2 construct: made in house; host or cells: E. coli BL21-Gold, pGEX vector
Description: as §1
FIG. 12 provides the inhibitor assay results for compounds 43 through 45 (e.g, respectively) as compared to the positive control GTP, for the wild-type Ras protein (panel A) and the single mutant N116G (SEQ ID No. 7). […] Thus, substitution of the N116 residue with a glycine appears to be a favorable mutation leading to expansion of the GTP binding pocket. […]
as §2, §3

[3] = target: T3, wild-type Rap1B enzyme (Homo sapiens, UniProt P61224); test: Selective binding, wild-type Rap1B; conditions: FIG. 33B
T3 construct: GST (N); made in house; host or cells: E. coli BL21-Gold, pGEX-4T (described for the mutant; inferred for the wild type)
T3 sequence (P61224 1-184): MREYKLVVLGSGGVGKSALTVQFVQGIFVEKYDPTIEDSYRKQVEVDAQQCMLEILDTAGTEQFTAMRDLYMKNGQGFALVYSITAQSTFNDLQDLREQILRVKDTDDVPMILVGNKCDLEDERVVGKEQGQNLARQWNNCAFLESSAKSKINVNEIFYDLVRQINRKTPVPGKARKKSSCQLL
Description: (§4) To confirm the general applicability of the methods and compositions of the present invention in the context of GTPases other than H-Ras, alanine substitutions at amino acids corresponding to positions 19 and 116 of Ras were introduced into the Rap1B GTPase. As shown in the alignment of Table 1, the identical amino acid residues, i.e., leucine at position 19, and asparagine at position 116, are present in Rap1B.
(§5) The mutant Rap1B protein construct was made as described above with respect to the Ras mutant proteins. All mutant proteins were made in the pGEX-4T bacterial expression system using the Quickchange protocol […] according to the manufacturer's instructions. Mutant Rap1B cDNAs were transformed individually in BL21-Gold competent cells (Stratagene) according to the manufacturer's instructions. An overnight culture of BL21-Gold cells containing one of the GST-Rap1B plasmids described above was diluted 1:50 in Superbroth medium (Q-Biogene) supplemented with 50 mg/L carbenicillin. After it had grown to an OD=0.6, synthesis of the GST-Rap1B protein was induced by the addition of IPTG (50 mM) and by further incubation at 30° C. for 12 h. After centrifugation at 3,500 g for 15 min at 4° C., the cell pellet was frozen at −80° C. for 1 h. […] Protein concentration was determined by a Bradford assay and the protein purity was assessed by gel electrophoresis.

[4] = target: T4, wild type H-Ras (Homo sapiens, UniProt P01112); test: Ras inhibitor / guanine nucleotide exchange assay with 3H-GDP, wild type; format: binding; conditions: at a concentration of 100 μM
T4 construct: made in house; host or cells: E. coli BL21-Gold, pGEX vector
Description: as §1
The GTPase modulators of the present invention were screened against wild-type and/or mutant GTPases for their effectiveness as GTPase inhibitors. […]
as §2
Cold GDP was used as a positive control. […] All of the measurements are in comparison to a background radioactivity count, such that the level of inhibition for a given compound was determined by the number of counts in comparison to the control. Thus, a high radioactivity count is indicative of a high level of binding between the mutant GTPase and the radioactive GDP.

[5] = target: T5, mutant Rap1B enzyme (Homo sapiens, UniProt P61224, L19A/N116A); test: Selective binding to mutant Rap1B (alanine at positions 19 and 116); conditions: FIG. 33B
T5 construct: made in house; host or cells: E. coli BL21-Gold, pGEX-4T
T5 sequence (P61224 1-184 L19A/N116A): T3 sequence (P61224 1-184) with L19A, N116A
Description: as §4, §5

[6] = target: T6, mutant enzyme (19A-116A) Ras binding to the Ras binding domain (RBD) of the Raf kinase (Homo sapiens, UniProt P01112, L19A/N116A); test: Effector binding assay: pull-down with Ras binding domain (RBD) of Raf kinase, western blot; format: biochemical; conditions: FIG. 35
T6 construct: GST (N); made in house; host or cells: E. coli BL21-Gold, pGEX vector (Ras)
Experimental: The ability of the mutant enzyme (19A-116A) to bind to a known effector of H-Ras was confirmed. Using the Ras binding domain (RBD) of the Raf kinase, the ability of the mutant enzyme to undergo a conformational change upon GTP binding, and, thus, to bind the effector was determined. In brief, purified mutant or wild-type proteins (150 ng) were incubated in 1 mL of loading buffer (100 mM Tris-HCl pH 7.5, 2 mM EDTA, 1 mM DTT, 1 mg/mL BSA) in the presence of 10 mM of GDP, GTP, 7 d or both GTP and 7 d for 15 min at 25° C. for loading the protein with the appropriate nucleotides. Following loading, MgCl2 (20 mM) was added along with GST-RBD (1.2 mg), comprising Raf kinase amino acids 53-131, bound to glutathione sepharose beads. The resulting suspensions were incubated with rotation for 30 min at 4° C. The beads were then washed three times with 1 mL of washing buffer (50 mM Tris-HCl pH 7.5, 50 mM NaCl, 20 mM MgCl2, 1 mM DTT) to remove unbound H-Ras proteins. The beads were boiled in SDS loading buffer, and the samples were separated by electrophoresis. Following transfer, the PVDF membrane was probed with anti-H-Ras and the amount of H-Ras bound to the RBD glutathione sepharose beads was visualized using anti-rabbit HRP in conjunction with WestPico (Pierce).

[7] = target: T7, mutant Ras (19A-116A) (Homo sapiens, UniProt P01112, L19A/N116A); test: Ras inhibitor / guanine nucleotide exchange assay with 3H-GDP, double mutant L19A-N116A; format: binding; conditions: for IC50: mutant (19A-116A) Ras, FIG. 34, read-out: IC50 (concentration at which 50% inhibition of GTP binding is observed); for displacement of radioactive GDP from the mutant GTPase: remaining radioactivity count
T7 construct: made in house; host or cells: E. coli BL21-Gold, pGEX vector
Description: as §1
FIG. 11 graphically illustrates the inhibition of double mutant L19A-N116A (SEQ ID No. 11) by various C-6 substituted GTP moieties (compounds 39 through 42, presented as a-d in the figure), as compared to the negative control (nothing added to displace the radiolabeled GDP), positive control (cold GDP), and background count (no GTPase enzyme added).
The GTPase modulators of the present invention were screened against wild-type and/or mutant GTPases for their effectiveness as GTPase inhibitors. Ras inhibitor assays were performed to test the activity of the synthesized modulators against various wild-type and/or mutant GTPases of interest, and/or to compare the different modulators based upon the relative observed level of inhibition.
For example, purified mutant Ras (19A-116A) or wild type H-Ras protein (0.5 to 20 μg) was incubated in 40 μL of GTP exchange buffer (50 mM Tris-HCl pH 7.5, 50 mM NaCl, 5 mM EDTA, 1 mM DTT, 1 mg/mL BSA) containing either DMSO, GTP (100 μM) or a modulator (100 μM) for 30 min at 25° C. This pre-incubation was followed by the additions of 2 μCi ^3H-GDP (NEN, #NET966) and, 10 min later, 25 mM MgCl2. After another 5 min of incubation, the reaction mixture was applied to a nitrocellulose filter (Millipore, #HAWP02500) pre-wetted with wash buffer (50 mM Tris-HCl pH 7.5, 10 mM MgCl2), the filter was then washed using 10 mL of wash buffer. Filters were dried and the bound radioactivity was measured by scintillation counting (Beckman, #LS6500).
Cold GDP was used as a positive control. Since the positive control naturally replaces the radioactive GDP in both the wild-type and mutant GTPase proteins, significant drops in radiolabeling are observed. Water was used as a negative control. All of the measurements are in comparison to a background radioactivity count, such that the level of inhibition for a given compound was determined by the number of counts in comparison to the control. Thus, a high radioactivity count is indicative of a high level of binding between the mutant GTPase and the radioactive GDP.

Molecule	inhibition of the mutant GTPase (decrease in radiolabel remaining bound) [2]	effect on the wild-type Rap1B enzyme [3]	binding to the mutant Rap1B enzyme [5]	effector (Raf RBD) binding of the mutant enzyme [6]	IC50 [7]	displacement of radioactive GDP from the mutant GTPase [7]	other results
6-S-mercaptoguanosine-5′-phosphate [Compound 82]	–	–	–	–	–	–	inhibitory effect on the N116C mutant [1]: 50-80%
C=CCOc1nc(N)nc2c1ncn2[C@@H]1O[C@H](COP(=O)(O)OP(=O)(O)OP(=O)(O)O)[C@@H](O)[C@H]1O [Compound 43, 6-O-allyl guanosine-5′-triphosphate]	significantly inhibit	–	–	–	–	–	–
Nc1nc(=S)c2ncn([C@@H]3O[C@H](COP(=O)(O)OP(=O)(O)OP(=O)(O)O)[C@@H](O)[C@H]3O)c2[nH]1 [Compound 45, 6-S-mercaptoguanosine-5′-triphosphate]	significantly inhibit	–	–	–	–	–	–
(2-phenyl)ethyl-GTP [Compound 52]	–	negligably affecting	bind tightly	prompts effector binding	–	displaced the radioactive GDP	–

Continued, in another order:

inhibition of the mutant GTPase (decrease in radiolabel remaining bound) [2]	effect on the wild-type Rap1B enzyme [3]	binding to the mutant Rap1B enzyme [5]	effector (Raf RBD) binding of the mutant enzyme [6]	IC50 [7]	displacement of radioactive GDP from the mutant GTPase [7]	Molecule	other results
–	negligably affecting	bind tightly	prevents effector binding	300 nM	displaced the radioactive GDP	Nc1nc2c(c(CCc3ccccc3)cn2[C@@H]2O[C@H](COP(=O)(O)OP(=O)(O)O)[C@@H](O)[C@H]2O)c(=O)[nH]1 [Compound 60, 7-deaza-7-(2″-phenyl)ethyl guanosine-5′-diphosphate]	inhibition of wild-type H-Ras [4]: does not inhibit; potency relative to GDP at displacing GTP from the mutant GTPase protein ([7]; ratio of IC50 values): 5 times
–	–	–	–	~1500 nM	–	Nc1nc2c(ncn2[C@@H]2O[C@H](COP(=O)(O)OP(=O)(O)O)[C@@H](O)[C@H]2O)c(=O)[nH]1 [GDP, reference compound]	–
